According to article PMC4279228 (Molecular Biology of the Cell, 2015):

Biological target: LFA-1 (CD11a/CD18, αLβ2 integrin) (Homo sapiens, UniProt P05107+P20701)
Test: Kd of unlabelled compound with XVA-FITC probe, flow cytometry on cells
Assay type: cell-based

Sequence of LFA-1 (CD11a/CD18, αLβ2 integrin) (P20701 26-1170): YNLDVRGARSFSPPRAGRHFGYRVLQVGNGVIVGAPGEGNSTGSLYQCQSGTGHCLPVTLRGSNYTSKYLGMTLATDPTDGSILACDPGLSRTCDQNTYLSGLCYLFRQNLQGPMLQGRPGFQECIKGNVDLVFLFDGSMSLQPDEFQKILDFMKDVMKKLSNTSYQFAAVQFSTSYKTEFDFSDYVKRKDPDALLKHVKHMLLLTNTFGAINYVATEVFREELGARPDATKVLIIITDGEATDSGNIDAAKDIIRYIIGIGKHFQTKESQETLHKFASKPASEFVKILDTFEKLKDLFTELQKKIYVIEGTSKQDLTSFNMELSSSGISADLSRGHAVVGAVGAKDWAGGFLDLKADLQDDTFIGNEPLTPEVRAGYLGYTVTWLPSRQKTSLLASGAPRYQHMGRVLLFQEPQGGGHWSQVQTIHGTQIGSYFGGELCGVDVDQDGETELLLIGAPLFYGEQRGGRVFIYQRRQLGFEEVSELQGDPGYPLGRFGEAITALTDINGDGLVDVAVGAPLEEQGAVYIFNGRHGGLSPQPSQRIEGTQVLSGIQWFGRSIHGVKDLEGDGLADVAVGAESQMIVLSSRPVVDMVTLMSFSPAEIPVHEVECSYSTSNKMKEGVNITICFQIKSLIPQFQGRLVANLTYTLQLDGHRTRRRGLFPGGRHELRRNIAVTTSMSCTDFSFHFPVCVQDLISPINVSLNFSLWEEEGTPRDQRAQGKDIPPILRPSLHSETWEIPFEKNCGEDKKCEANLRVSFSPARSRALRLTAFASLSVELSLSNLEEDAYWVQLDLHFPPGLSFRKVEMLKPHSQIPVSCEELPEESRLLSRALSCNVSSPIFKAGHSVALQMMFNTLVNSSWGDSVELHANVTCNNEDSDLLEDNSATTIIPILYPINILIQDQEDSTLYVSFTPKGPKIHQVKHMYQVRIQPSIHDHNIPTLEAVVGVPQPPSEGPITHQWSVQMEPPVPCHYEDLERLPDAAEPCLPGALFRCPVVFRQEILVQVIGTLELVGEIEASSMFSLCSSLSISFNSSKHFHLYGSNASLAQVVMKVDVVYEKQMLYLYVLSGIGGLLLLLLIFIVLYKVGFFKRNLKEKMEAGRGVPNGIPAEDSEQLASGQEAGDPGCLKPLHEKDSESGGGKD
Sequence of LFA-1 (CD11a/CD18, αLβ2 integrin) (P05107 23-769): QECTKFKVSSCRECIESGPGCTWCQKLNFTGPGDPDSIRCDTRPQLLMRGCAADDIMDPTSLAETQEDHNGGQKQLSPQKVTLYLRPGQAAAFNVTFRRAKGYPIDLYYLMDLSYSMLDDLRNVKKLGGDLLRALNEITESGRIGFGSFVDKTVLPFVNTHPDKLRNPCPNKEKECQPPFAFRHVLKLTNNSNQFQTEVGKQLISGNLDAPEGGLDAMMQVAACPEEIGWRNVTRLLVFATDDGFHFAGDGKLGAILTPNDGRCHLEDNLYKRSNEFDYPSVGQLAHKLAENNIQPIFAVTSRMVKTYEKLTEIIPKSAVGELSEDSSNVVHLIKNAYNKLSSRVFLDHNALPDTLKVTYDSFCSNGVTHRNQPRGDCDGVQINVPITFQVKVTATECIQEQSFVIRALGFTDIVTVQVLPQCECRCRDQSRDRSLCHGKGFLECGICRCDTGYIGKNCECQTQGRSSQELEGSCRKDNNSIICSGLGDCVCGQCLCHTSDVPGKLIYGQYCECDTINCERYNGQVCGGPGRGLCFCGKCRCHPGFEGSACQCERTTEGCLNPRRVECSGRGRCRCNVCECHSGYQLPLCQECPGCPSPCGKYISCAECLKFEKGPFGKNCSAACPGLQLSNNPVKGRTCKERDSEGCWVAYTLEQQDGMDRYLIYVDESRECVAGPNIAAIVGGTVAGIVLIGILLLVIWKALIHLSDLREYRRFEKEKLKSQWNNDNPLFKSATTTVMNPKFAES

`O=C(NCc1cccc(O)c1)c1cc(Cl)c(C(=O)N[C@@H](CNC(=O)c2cc(O)cc(O)c2)C(=O)O)c(Cl)c1` [XVA-143, (S)-2-[4-(3-hydroxybenzylcarbamoyl)-2,6-dichlorobenzoylamino]-3-(3,5-dihydroxybenzoylamino) propionic acid] gave a Kd of 80 to 90 nM.
